This note sets out measurements from patent publication US6632794B1, “Insulin-like growth factor agonist molecules” (Genentech, Inc., priority 1997, dated 2003).

The test system of assay [1] is hypophysectomized rats. In words: Long-term administration to hypophysectomized rats. The note with it: one week. The format is in vivo, rat. The source says:
Young female SD rats were hypophysectomized at Taconic Laboratories and delivered several days later. The rats were then weighed frequently and those whose weight increased or decreased by more than 7 grams between 2 and 3 weeks following hypophysectomy were excluded from the study. Twenty-five rats were grouped randomly into five groups based on their body weight, and then randomly assigned to cages, with four rats per cage. The animals were allowed ad libitum access to food and water and housed in a room controlled for temperature and lighting.
1) Excipient pump, excipient injections;
2) (Leu^24,Ala^31)hIGF-I (10 μg/day, by SC minipump), excipient injections;
3) (Leu^24,Ala^31)hIGF-I (50 μg/day, by SC minipump), excipient injections;
4) Recombinant human GH (NUTROPIN™ brand from Genentech, Inc., 20 μg/day, by SC injection, two injections each of 10 μg/day), excipient minipump; or
5) (Leu^24,Ala^31)hIGF-I (50 μg/day, by SC minipump) plus recombinant human GH (20 μg/day, by SC injection, two injections each of 10 μg/day).
The rats were dosed for one week.
The mutant (Leu^24,Ala^31)hIGF-I was administered by osmotic minipumps (ALZET 2001™, Alza, Palo Alto, Calif.), which were placed in a subcutaneous tunnel in the dorsal neck region of the rats while they were anesthetized with KETAMINE™/XYLAZINE™ anesthesia. The pumps were filled with solutions so that the calculated daily dose was 50 μg or 10 μg, assuming that 24 μl of solution was delivered each day for one week.
Recombinant human GH was administered for one week by twice daily SC injections of 10 μg in 100 μl volume.
Body weights were measured daily in the morning. At the end of the week of dosing the animals were anesthetized via CO2 and exsanguinated via cardiac puncture. The remaining blood was allowed to clot and serum was separated and stored for further analysis.
(§1) Spleen, thymus, heart, liver, kidney, and perirenal fat were removed and weighed. The tibia was removed and fixed in neutral buffered formalin for histological measurement of epiphyseal plate width.
Serum chemistries were measured on an automated Chem I analyzer. Serum insulin concentration was measured using an RIA Kit supplied by Linco, Inc. To measure the IGF-I concentrations the serum was extracted using acid ethanol and the supernatant diluted to neutrality and assayed for IGF-I by RIA.
Tibia were sectioned longitudinally, stained with Toluene Blue, and mounted on microscope slides. The tibial epiphyseal plate width was measured using an ocular micrometer attached to a microscope.
Data were analyzed statistically by analysis of variance using one factor and two factor ANOVA.

Assay [2] relates to dwarf rats. In words: Long-term administration to GH-deficient dwarf (dw/dw) rats. The format is in vivo, rat.
Text: Young female dwarf rats (11-12 wk of age, 115-140 g) were bred by homozygous mating (Charles Rivers Laboratories) and delivered to the Genentech Animal House where they were housed five per cage on polystyrene chips and fed a standard animal chow and water ad libitum, and kept in a room of constant humidity and with controlled temperature and lighting. The animals were weighed, and based on uniformity of body weight, 37 of the animals were selected and randomized into treatment groups and cages to give six treatment groups of equal initial body weights (approximately 120 g).
The study consisted of six groups of rats with six or seven rats per group.
The mutant (Leu^24,Ala^31)hIGF-I and native sequence recombinant human IGF-I were administered by osmotic minipumps (ALZET 2001™, Alza, Palo Alto, Calif.) which were placed in a subcutaneous tunnel in the dorsal neck region while the rats were anesthetized with KETAMINE/XYLAZINE™ anesthesia. The pumps were filled with solutions so that the calculated daily dose was 120 μg per rat per day (1 mg/kg/day), assuming that the pump delivered as per the manufacturer's description (24 μl of solution per day).
Recombinant human GH (50 μg/day) was administered for eight days by twice daily sc injection, with each injection being of 25 μg in a volume of 100 μl.
Body weights were measured daily in the morning. After 8 days the animals were anesthetized using CO2 and exsanguinated by cardiac puncture. The remaining blood was allowed to clot and serum was separated and stored for further analysis.
as §1
Serum chemistries were measured using a TECHNICON CHEM I PLUS™ analyzer. Serum insulin concentration was measured using an RIA kit supplied by Linco, Inc. To measure the IGF-I concentrations the serum was extracted using acid ethanol and the supernatant diluted to neutrality and assayed for IGF-I by RIA. The concentration of rat IGF-I in serum extract was measured by RIA using a kit from Diagnostic Systems Laboratories, Inc. Human IGF-I concentration was measured by RIA at Genentech, Inc.
Tibia were sectioned longitudinally, stained with TOLULENE BLUE™ stain and mounted on microscope slides. The tibial epiphyseal plate width was measured using an ocular micrometer attached to a microscope.
Data were analyzed statistically by analysis of variance using one-factor ANOVA followed by Duncan's Range Test.

The target in assay [3] is T1, IGFBP-1 (Homo sapiens, UniProt P08833).
T1 construct: biotin (chemical label, EZ-LINK NHS-SS-Biotin)
T1 sequence (P08833 26-259): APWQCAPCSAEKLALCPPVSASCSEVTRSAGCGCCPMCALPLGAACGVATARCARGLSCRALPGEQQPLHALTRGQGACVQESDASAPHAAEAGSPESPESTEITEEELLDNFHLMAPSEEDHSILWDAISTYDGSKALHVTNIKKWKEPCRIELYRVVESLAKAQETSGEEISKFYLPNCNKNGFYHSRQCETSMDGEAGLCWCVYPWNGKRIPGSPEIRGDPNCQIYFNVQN
In words: BIAcore competition assay, IGFBP-1 binding to IGF-I. How it is done:
Two series of synthetic peptide variants were generated to determine which side chains of the bp1-01 peptide might contribute directly to binding IGFBP-1. In the first series an alanine-scanning approach (Cunningham and Wells, Science, 244: 1081-1085 (1989)) was used to remove that portion of each side chain beyond the beta carbon. The contribution of these atoms to the free energy of binding of the peptide to IGFBP-1 was then assessed by measuring the potency (IC50) of the variant for inhibiting IGFBP-1 binding to IGF-I or IGF-II in a BIAcore™competition assay, analogous to that described for IGFBP-3 (see Example 7).
(§2) Substitutions at the N-terminus or C-terminus yielded affinity improvements. […] All of these peptides had similar or improved apparent affinity for IGFBP-1 as compared with bp1-01 and bp1-02 and are thus expected to increase the availability of IGF-I in an in vitro cell culture assay.
In general terms: Surface plasmon resonance follows binding to a sensor surface in real time, without labels.

For assay [4], the target named is IGFBP-3 (Homo sapiens, UniProt P17936). In words: BIAcore competition assay, IGFBP-3 binding to immobilized IGF-I. The procedure: A. BIAcore™ Competition Assay (for IGFBP-3 Binders)
IGF-I was immobilized on a dextran chip for inhibition assays using a BIAcore™ 2000 surface-plasmon-resonance device (BIAcore, Inc., Piscataway, N.J.) to measure free binding protein. […] Serial dilutions of peptide were mixed with a constant concentration (40 nM) of IGFBP-3. After incubation for >1 hour at room temperature, an aliquot of 20 μL was injected at a flow rate of 20 μL/min over the IGF-I chip. Following the injection, a response reading was taken to measure the relative amount of IGFBP-3 bound to the IGF-I.

The target of assay [5] is T1, IGFBP-1. In words: Biotin-BP plate (ELISA) assay, biotinylated IGFBP-1 binding to IGF-I. The following applies: C-terminal bp1-01 variants by ELISA. How it is done: 1. Biotin-BP Assay (for IGFBP-1 Binders)
For inhibition of IGFBP-1 binding, IGFBP-1 (as well as IGFBP-3 as a control) were biotinylated as described above. MAXISORP™plates were coated and blocked as described above, using 2 μg/mL IGF-I. In a separate plate, serial dilutions of peptide were premixed with a constant concentration (20 nM) of biotinylated IGFBP-1. After 20 min. at room temperature, the mixture was added to the IGF-I plate. The peptide/IGFBP mix was then removed and the plate was washed ten times with PBS buffer containing 0.05% TWEEN-20™ surfactant. Bound biotin-IGFBP-1 was then detected using streptavidin-conjugated horse radish peroxidase, and a chromogenic substrate.
A second series of peptides made use of non-natural amino acids to probe whether other structural features such as an added methyl group at the alpha carbon, or an isomer (D-alanine) could affect peptide binding to IGFBP-1.
as §2
On the technique in general: An ELISA detects its analyte on a solid surface through an enzyme-linked reagent.

The mark [6] stands for this setting: serum at sacrifice, 8 days, Means ± SEM.
Setting [7] is: 40 nM IGFBP-3, 400 to 800 RU immobilized IGF-I, read-out: BIAcore Assay IC50, inhibition of IGF-I binding to IGFBP-3.
[8] abbreviates: bp3-01-ox variants by BIAcore competition assay, read-out: IGF-I Inhibition IC50.

Like-named read-outs stand apart in the source and are kept apart here. Positions of bridges follow the written chain, without caps; N, C: chain ends. Residues, ends and D or L forms follow the SMILES beside them. No end group written: not given here.

Sequence of IGFBP-3 (P17936 28-291): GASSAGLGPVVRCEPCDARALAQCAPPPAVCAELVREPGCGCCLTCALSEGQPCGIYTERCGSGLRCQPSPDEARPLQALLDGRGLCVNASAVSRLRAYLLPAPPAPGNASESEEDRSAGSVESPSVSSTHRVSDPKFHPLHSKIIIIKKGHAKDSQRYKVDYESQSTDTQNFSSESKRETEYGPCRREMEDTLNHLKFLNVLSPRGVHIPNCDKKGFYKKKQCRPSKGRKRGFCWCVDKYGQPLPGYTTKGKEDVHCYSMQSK

Turning to “hGH: Recombinant human GH (NUTROPIN brand from Genentech, Inc.)”, the body weight gain entry in assay [1] (IGF agonist 50 μg/day SC minipump, hGH 20 μg/day SC, or both) was “significant increase in body weight”. Besides, the absolute thymus weight entry in assay [1] (IGF agonist 50 μg/day, hGH 20 μg/day, or both) is listed as “almost equal”. Besides, in assay [1] (IGF agonist 10 and 50 μg, hGH 20 μg/day, or combination), the “absolute and relative heart weight” value is “slightly increased absolute heart weight and caused a fall in relative heart weight”. The absolute spleen weight result in assay [1] (IGF mutant 10 and 50 μg/day, hGH 20 μg/day, or hGH plus 50 μg/day) is “greater than that to the IGF agonist”. Besides, in assay [1] (rhGH 20 μg/day), the epiphyseal plate width entry is listed as “around 400 μm”. Also, the epiphyseal plate widths entry in assay [2] (8 days) is “significantly (p<0.05) increased”. This compound gave a body weight gain in assay [2] (Day 5, hGH 50 μg/d, IGF mutant 120 μg/day) of 12.4 ± 0.9 g. Also, in assay [2] (setting [6]), the AST came out at 123 ± 13 U/l, the BUN worked out at 15.6 ± 0.7 mg/dL, the CK is 184 ± 29 u/l and the Creatinine turned out to be 0.33 ± 0.02 mg/dL. In assay [2] (setting [6]), this compound displayed a Glucose of 192 ± 10 mg/dL and an Insulin of 1.48 ± 0.29 ng/mL.
For the compound `CC(C)C[C@@H]1NC(=O)[C@H](Cc2c[nH]c3ccccc23)NC(=O)[C@H](CCC(N)=O)NC(=O)[C@H](CC(C)C)NC(=O)[C@@H]2CCCN2C(=O)CNC(=O)[C@H](C)NC(=O)[C@H](CCCNC(=N)N)NC(=O)[C@@H](NC(=O)CNC(=O)[C@@H](NC(=O)[C@H](CCC(=O)O)NC(=O)[C@@H](N)CO)C(C)C)CSSC[C@@H](C(=O)N[C@@H](CCC(=O)O)C(=O)N[C@@H](CCCCN)C(=O)N[C@@H](Cc2ccc(O)cc2)C(=O)N[C@@H](Cc2ccccc2)C(=O)N[C@@H](CO)C(=O)N[C@H](C(=O)N[C@@H](Cc2ccc(O)cc2)C(N)=O)[C@@H](C)O)NC1=O` [bp1-21A] (H-SEVGCRAGPLQWLCEKYFSTY-NH2; disulfide 5-14), in assay [3] (IGFBP-1), the “affinity improvement compared with bp1-14 (18-mer)” value turned out to be 3 fold. Also, the “IGF-I Inhibition IC50 (114)/IC50 (mut)” value in assay [3] (g3 bp1-01 selectants by BIAcore, relative to bp1-14, higher = better) is reported as 3.2. For the same compound, the “IGF-I Inhibition IC50 (116)/IC50 (mut)” value in assay [3] (g3 bp1-01 selectants by BIAcore, relative to bp1-16, higher = better) is given as 15.
On to `CC[C@H](C)[C@@H]1NC(=O)[C@@H](NC(=O)[C@@H](NC(=O)[C@H](Cc2c[nH]c3ccccc23)NC(=O)CNC(=O)[C@H](CC(=O)O)NC(=O)[C@H](CC(C)C)NC(=O)[C@@H](N)CCC(=O)O)C(C)C)CSSC[C@@H](C(=O)N[C@@H](Cc2ccc(O)cc2)C(=O)N[C@@H](CC(C)C)C(=O)N[C@@H](C)C(=O)N[C@@H](CCC(=O)O)C(=O)NCC(N)=O)NC(=O)[C@H](CC(C)C)NC(=O)[C@H](CC(N)=O)NC(=O)[C@H](CCC(N)=O)NC(=O)[C@H](CCC(=O)O)NC(=O)CNC(=O)[C@H](C(C)C)NC(=O)[C@H](CCCCN)NC1=O` [BP3-23] (H-ELDGWVCIKVGEQNLCYLAEG-NH2; disulfide 7-16; N-terminus assumed), for which, in assay [4] (setting [7]), the IC50 came to 220 µM.
Take WPVAEWYLCN [bp3-24]: in assay [4] (setting [8]), the IC50 was above 1000 µM.
With CRAGPLQWLCEK [bp1-17], the “IGF-I Inhibition IC50 (mut)/IC50 (wt)” value in assay [5] is given as above 1000.
Turning to `CC(C)C[C@@H]1NC(=O)[C@H](Cc2ccc(O)cc2)NC(=O)[C@H](Cc2c[nH]c3ccccc23)NC(=O)[C@H](CCC(=O)O)NC(=O)[C@H](C)NC(=O)[C@H](C(C)C)NC(=O)[C@@H]2CCCN2C(=O)[C@H](Cc2c[nH]c3ccccc23)NC(=O)[C@@H](NC(=O)[C@@H](NC(=O)[C@@H](N)CCC(=O)O)C(C)C)CSSC[C@@H](C(=O)N[C@@H](CC(N)=O)C(=O)O)NC1=O` [bp3-27] (H-EVCWPVAEWYLCN-OH; disulfide 3-12; N-terminus and C-terminus assumed), the IC50 in assay [4] (setting [8]) was found to be 2.8 µM. For the same compound, the “IGF-I Inhibition IC50 (mut)/IC50 (wt)” value in assay [4] (bp3-01-ox variants by BIAcore, wt = bp3-01-ox) is 1.4.
As for `CC[C@H](C)[C@@H]1NC(=O)[C@H](Cc2ccc(O)cc2)NC(=O)CNC(=O)[C@H](CCC(N)=O)NC(=O)[C@H](CC(=O)O)NC(=O)[C@H](Cc2c[nH]cn2)NC(=O)[C@H](CCCNC(=N)N)NC(=O)[C@H](CC(=O)O)NC(=O)[C@H](Cc2c[nH]c3ccccc23)NC(=O)[C@@H](N)CSSC[C@@H](C(=O)N[C@H](C(=O)N[C@H](C(=O)N[C@@H](CC(=O)O)C(=O)N[C@@H](CO)C(=O)O)[C@@H](C)O)[C@@H](C)O)NC1=O` [BP13] (H-CWDRHDQGYICTTDS-OH; disulfide 1-11), the IC50 in assay [4] (setting [7]) was above 1000 µM.
CRAGPLQWLCE [bp1-04]: the “IGF-I Inhibition IC50 (mut)/IC50 (wt)” value in assay [5] is on record as above 1000.

What is called IC50 is the midpoint of a concentration-inhibition curve.
